Where only a bound is given, the exact number is not on record here.

KAT2A, sequence (Q92830 whole entry): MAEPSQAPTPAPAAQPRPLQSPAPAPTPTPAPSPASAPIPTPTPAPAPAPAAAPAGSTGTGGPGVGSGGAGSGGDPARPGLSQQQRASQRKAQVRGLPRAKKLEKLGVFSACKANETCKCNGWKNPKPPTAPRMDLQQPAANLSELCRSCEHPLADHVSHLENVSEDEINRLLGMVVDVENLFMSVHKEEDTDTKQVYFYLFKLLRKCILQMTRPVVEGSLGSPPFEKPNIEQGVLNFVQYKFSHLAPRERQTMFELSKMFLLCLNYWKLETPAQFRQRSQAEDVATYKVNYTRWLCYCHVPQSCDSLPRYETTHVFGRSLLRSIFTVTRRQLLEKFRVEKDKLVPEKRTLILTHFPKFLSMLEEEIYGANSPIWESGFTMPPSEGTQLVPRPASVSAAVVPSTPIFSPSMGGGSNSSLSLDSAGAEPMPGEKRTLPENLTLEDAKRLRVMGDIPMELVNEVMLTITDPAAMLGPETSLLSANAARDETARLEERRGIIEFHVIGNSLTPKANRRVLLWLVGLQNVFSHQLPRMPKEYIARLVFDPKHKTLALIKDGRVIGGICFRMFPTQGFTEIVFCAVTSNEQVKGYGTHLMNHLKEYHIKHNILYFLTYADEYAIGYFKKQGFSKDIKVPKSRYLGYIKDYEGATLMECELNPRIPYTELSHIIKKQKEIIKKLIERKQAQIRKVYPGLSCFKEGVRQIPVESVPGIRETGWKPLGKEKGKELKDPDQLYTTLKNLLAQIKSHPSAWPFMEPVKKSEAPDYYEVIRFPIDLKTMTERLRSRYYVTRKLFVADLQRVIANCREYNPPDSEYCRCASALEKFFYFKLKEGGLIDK

For the experiment, the target named is KAT2A (Homo sapiens, UniProt Q92830). Kind of experiment: KAT2A degradation, Western Blot (Jess), MOLM-13 cells. The following applies: MOLM-13 cells, KAT2A, 24 h, Western Blot, vs DMSO; read-out: KAT2A MOLM-13 DC50. In kind it is cell-based. Also noted: degrader, Western blot. In short, it runs like this:
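MOLM-13 cells in RPMI 1640/20% FBS were treated with compound for 24 h at 37 °C. RIPA lysates (4 μg) were run on a capillary Western (Jess) with anti-KAT2A antibody and chemiluminescent detection. DC50 comes from percent protein reduction versus DMSO control.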
(In general: Immunoblotting shows a protein as a band on a membrane.)
The DC50 is the concentration giving 50% degradation. In the case of `CN1C[C@H](Nc2cnn(C)c(=O)c2Br)C[C@H](c2ccc(CN3CCC4(CCN(c5ccc6c(c5)C(=O)N(C5CCC(=O)NC5=O)C6=O)C4)C3)cc2)C1` (stereo partly shown) [Compound 109], the DC50 was below 1 nM.

In the case of `CN1C[C@H](Nc2cnn(C)c(=O)c2Br)C[C@H](c2ccc(C(=O)N3CCN(CC4CCN(c5ccc6c(c5)C(=O)N(C5CCC(=O)NC5=O)C6=O)CC4)CC3)cc2)C1` (stereo partly shown) [Compound 111], the DC50 is below 1 nM.

In the case of `CN1C[C@H](Nc2cnn(C)c(=O)c2Br)C[C@H](c2ccc(C(=O)N3CCC(F)(CN4CCN(c5ccc6c(c5)C(=O)N(C5CCC(=O)NC5=O)C6=O)CC4)CC3)cc2)C1` (stereo partly shown) [Compound 112], the 50% degradation concentration (DC50) was below 1 nM.

`CN1C[C@H](Nc2cnn(C)c(=O)c2Br)C[C@H](c2ccc(CN3CCC(c4ccc5c(c4)CN(C4CCC(=O)NC4=O)C5=O)C3)cc2)C1` (stereo partly shown) [Compound 113]: the DC50 is below 1 nM.

As to `CN1C[C@H](Nc2cnn(C)c(=O)c2Br)C[C@H](c2ccc(C(=O)N3CCC(c4ccc(NC5CCC(=O)NC5=O)cc4)CC3)cc2)C1` (stereo partly shown) [Compound 115], the DC50 was below 1 nM.

For `CN1C[C@H](Nc2cnn(C)c(=O)c2Br)C[C@H](c2ccc(CN3CCN(c4cccc5c4CN(C4CCC(=O)NC4=O)C5=O)CC3)cc2)C1` (stereo partly shown) [Compound 116], the half-maximal degradation concentration (DC50) was below 1 nM.

For the compound `CN1C[C@H](Nc2cnn(C)c(=O)c2Br)C[C@H](c2ccc(COC3CN(c4ccc5c(c4)C(=O)N(C4CCC(=O)NC4=O)C5=O)C3)cc2)C1` (stereo partly shown) [Compound 117], the DC50 was below 1 nM.

Regarding `CN1C[C@H](Nc2cnn(C)c(=O)c2Br)C[C@H](c2ccc(C(=O)N3CCC4(CCN(CC5CCN(c6ccc7c(c6)C(=O)N(C6CCC(=O)NC6=O)C7=O)CC5)C4)C3)cc2)C1` (stereo partly shown) [Compound 118], the 50% degradation concentration (DC50) was below 1 nM.

Turning to `CN1C[C@H](Nc2cnn(C)c(=O)c2Br)C[C@H](c2ccc(C(=O)N3CCC(Oc4cccc(C5CCC(=O)NC5=O)c4)CC3)cc2)C1` (stereo partly shown) [Compound 119], the half-maximal degradation concentration (DC50) was 1 to 30 nM.

In the case of `Cc1ccc(OC2CCN(C(=O)c3ccc([C@H]4C[C@@H](Nc5cnn(C)c(=O)c5Br)CN(C)C4)cc3)CC2)cc1C1CCC(=O)NC1=O` (stereo partly shown) [Compound 121], the 50% degradation concentration (DC50) was in the range of 1 to 30 nM.

With `Cc1ccc(OC2CCN(Cc3ccc([C@H]4C[C@@H](Nc5cnn(C)c(=O)c5Br)CN(C)C4)cc3)CC2)cc1C1CCC(=O)NC1=O` (stereo partly shown) [Compound 122], the DC50 lay in the range of 1 to 30 nM.

Regarding `CN1C[C@H](Nc2cnn(C)c(=O)c2Br)C[C@H](c2ccc(CN3CCC4(CC3)CN(c3cccc(C5CCC(=O)NC5=O)c3)C4)cc2)C1` (stereo partly shown) [Compound 127], the DC50 lay within 1 to 30 nM.

With `CN1C[C@H](Nc2cnn(C)c(=O)c2Br)C[C@H](c2ccc(C(=O)N3CCC4(CC3)CN(c3cccc(C5CCC(=O)NC5=O)c3)C4)cc2)C1` (stereo partly shown) [Compound 128], the DC50 is 1 to 30 nM.

`CN1C[C@H](Nc2cnn(C)c(=O)c2C2CC2)C[C@H](c2ccc(CN3CCC(c4ccc5c(c4)CN(C4CCC(=O)NC4=O)C5=O)CC3)cc2)C1` (stereo partly shown) [Compound 129]: the DC50 is 1 to 30 nM.

Consider `CN1C[C@H](Nc2cnn(C)c(=O)c2Br)C[C@H](c2ccc(CN3CCC(c4ccc5c(c4)C(=O)N(C4CCC(=O)NC4=O)C5=O)C3)cc2)C1` (stereo partly shown) [Compound 130], for which the DC50 lay within 1 to 30 nM.

Turning to `CN1C[C@H](Nc2cnn(C)c(=O)c2Br)C[C@H](c2ccc(C(=O)N3CCC(Oc4ccc(F)c(C5CCC(=O)NC5=O)c4)CC3)cc2)C1` (stereo partly shown) [Compound 131], the half-maximal degradation concentration (DC50) was in the range of 1 to 30 nM.

`CN1C[C@H](Nc2cnn(C)c(=O)c2Br)C[C@H](c2ccc(CN3CCC(Oc4ccc(F)c(C5CCC(=O)NC5=O)c4)CC3)cc2)C1` (stereo partly shown) [Compound 132]: the half-maximal degradation concentration (DC50) was below 1 nM.

As for `CN1C[C@H](Nc2cnn(C)c(=O)c2Br)C[C@H](c2ccc(CN3CCC4(CC3)CN(c3ccc(C5CCC(=O)NC5=O)cc3)C4)cc2)C1` (stereo partly shown) [Compound 133], the DC50 was 1 to 30 nM.

Consider `CN1C[C@H](Nc2cnn(C)c(=O)c2Br)C[C@H](c2ccc(CN3CCC4(CC3)CCN(c3cccc(C5CCC(=O)NC5=O)c3)CC4)cc2)C1` (stereo partly shown) [Compound 134], for which the DC50 is below 1 nM.

With `CN1C[C@H](Nc2cnn(C)c(=O)c2Br)C[C@H](c2ccc(C(=O)N3CCC4(CC3)CCN(c3cccc(C5CCC(=O)NC5=O)c3)CC4)cc2)C1` (stereo partly shown) [Compound 135], the DC50 was below 1 nM.

As for `CN1C[C@H](Nc2cnn(C)c(=O)c2Br)C[C@H](c2ccc(C(=O)N3CCC(c4ccc(CN5CCC(=O)NC5=O)cc4)CC3)cc2)C1` [Compound 136], the DC50 is above 30 nM.

On to `CN1C[C@H](Nc2cnn(C)c(=O)c2Br)C[C@H](c2ccc(C(=O)N3CCN(c4ccc5c(c4)n(C)c(=O)n5C4CCC(=O)NC4=O)CC3)cc2)C1` (stereo partly shown) [Compound 137], for which the half-maximal degradation concentration (DC50) was 1 to 30 nM.

On to `CN1C[C@H](Nc2cnn(C)c(=O)c2Br)C[C@H](c2ccc(C(=O)N3CC(c4ccc5c(c4)CN(C4CCC(=O)NC4=O)C5=O)C3)cc2)C1` (stereo partly shown) [Compound 138], for which the 50% degradation concentration (DC50) was below 1 nM.

As for `CN1C[C@H](Nc2cnn(C)c(=O)c2Br)C[C@H](c2ccc(CN3CC(c4ccc5c(c4)CN(C4CCC(=O)NC4=O)C5=O)C3)cc2)C1` (stereo partly shown) [Compound 139], the DC50 was below 1 nM.

As to `CN1C[C@H](Nc2cnn(C)c(=O)c2Br)C[C@H](c2ccc(C(=O)N3CCC(c4cccc(CN5CCC(=O)NC5=O)c4)CC3)cc2)C1` [Compound 140], the half-maximal degradation concentration (DC50) is above 30 nM.

Take `CN1C[C@H](Nc2cnn(C)c(=O)c2Cl)C[C@H](c2ccc(CN3CC(c4ccc5c(c4)CN(C4CCC(=O)NC4=O)C5=O)C3)cc2)C1` (stereo partly shown) [Compound 141]: the DC50 is below 1 nM.

As to `CN1C[C@H](Nc2cnn(C)c(=O)c2Br)C[C@H](c2ccc(C(=O)N3CCN(c4cccc5c4n(C)c(=O)n5C4CCC(=O)NC4=O)CC3)cc2)C1` (stereo partly shown) [Compound 142], the 50% degradation concentration (DC50) lay in the range of 1 to 30 nM.

`CN1C[C@H](Nc2cnn(C)c(=O)c2Br)C[C@H](c2ccc(C(=O)N3CCN(c4ccc(F)c(C5CCC(=O)NC5=O)c4)CC3)cc2)C1` (stereo partly shown) [Compound 143]: the half-maximal degradation concentration (DC50) was below 1 nM.

Turning to `CN1C[C@H](Nc2cnn(C)c(=O)c2Br)C[C@H](c2ccc(C(=O)N3CC4(CCN(c5ccc(C6CCC(=O)NC6=O)cc5)CC4)C3)cc2)C1` (stereo partly shown) [Compound 144], the DC50 was below 1 nM.

`CN1C[C@H](Nc2cnn(C)c(=O)c2Br)C[C@H](c2ccc(C(=O)N3CC4(C3)CN(c3ccc(C5CCC(=O)NC5=O)cc3)C4)cc2)C1` (stereo partly shown) [Compound 147]: the half-maximal degradation concentration (DC50) lay in the range of 1 to 30 nM.

Consider `CN1C[C@H](Nc2cnn(C)c(=O)c2Br)C[C@H](c2ccc(C(=O)N3CC4(C3)CN(c3cccc(C5CCC(=O)NC5=O)c3)C4)cc2)C1` (stereo partly shown) [Compound 148], for which the DC50 lay within 1 to 30 nM.

In the case of `CN1C[C@H](Nc2cnn(C)c(=O)c2Br)C[C@H](c2ccc(C(=O)N3CCN(C4CCN(C5CCC(=O)NC5=O)CC4)CC3)cc2)C1` (stereo partly shown) [Compound 149], the DC50 was 1 to 30 nM.

Take `Cc1c(N[C@@H]2C[C@H](c3ccc(CN4CCC(c5ccc6c(c5)CN(C5CCC(=O)NC5=O)C6=O)CC4)cc3)CN(C)C2)cnn(C)c1=O` (stereo partly shown) [Compound 150]: the 50% degradation concentration (DC50) was below 1 nM.

For `CN1C[C@H](Nc2cnn(C)c(=O)c2Br)C[C@H](c2ccc(COc3ccc(C4CCC(=O)NC4=O)cc3)cc2)C1` (stereo partly shown) [Compound 151], the DC50 was 1 to 30 nM.

Turning to `CN1C[C@H](Nc2cnn(C)c(=O)c2Br)C[C@H](c2ccc(C(=O)N3CCN(c4ccc(F)c(C5CCC(=O)NC5=O)c4)CC3)cc2)C1` (stereo partly shown) [Compound 153], the DC50 was in the range of 1 to 30 nM.

Turning to `CN1C[C@H](Nc2cnn(C)c(=O)c2Br)C[C@H](c2ccc(CN3CC4(CCN(c5ccc(C6CCC(=O)NC6=O)cc5)CC4)C3)cc2)C1` (stereo partly shown) [Compound 154], the DC50 is below 1 nM.

Consider `CN1C[C@H](Nc2cnn(C)c(=O)c2Br)C[C@H](c2ccc(CN3CCC4(CC3)CCN(c3ccc(C5CCC(=O)NC5=O)c(F)c3)CC4)cc2)C1` (stereo partly shown) [Compound 156], for which the DC50 was below 1 nM.

Regarding `CN1C[C@H](Nc2cnn(C)c(=O)c2Br)C[C@H](c2ccc(CN3CCC4(CC3)CCN(c3ccc(C5CCC(=O)NC5=O)cc3F)CC4)cc2)C1` (stereo partly shown) [Compound 158], the half-maximal degradation concentration (DC50) is below 1 nM.

For `CN1C[C@H](Nc2cnn(C)c(=O)c2Br)C[C@H](c2ccc(CN3CC4(C3)CN(c3ccc(C5CCC(=O)NC5=O)cc3)C4)cc2)C1` (stereo partly shown) [Compound 159], the half-maximal degradation concentration (DC50) lay within 1 to 30 nM.

Consider `CN1C[C@H](Nc2cnn(C)c(=O)c2Br)C[C@H](c2ccc(CN3CC4(C3)CN(c3cccc(C5CCC(=O)NC5=O)c3)C4)cc2)C1` (stereo partly shown) [Compound 160], for which the half-maximal degradation concentration (DC50) was above 30 nM.

For `CN1C[C@H](Nc2cnn(C)c(=O)c2Br)C[C@H](c2ccc(C(=O)N3CCC(N4CCN(C5CCC(=O)NC5=O)CC4)CC3)cc2)C1` (stereo partly shown) [Compound 161], the DC50 was above 30 nM.

Consider `CN1C[C@H](Nc2cnn(C)c(=O)c2Cl)C[C@H](c2ccc(C(=O)N3CCC4(CC3)CCN(c3cccc(C5CCC(=O)NC5=O)c3)CC4)cc2)C1` (stereo partly shown) [Compound 163], for which the half-maximal degradation concentration (DC50) was below 1 nM.

For `CN1C[C@H](Nc2cnn(C)c(=O)c2Cl)C[C@H](c2ccc(CN3Cc4cc5c(cc4C3)C(=O)N(C3CCC(=O)NC3=O)C5=O)cc2)C1` (stereo partly shown) [Compound 164], the half-maximal degradation concentration (DC50) was in the range of 1 to 30 nM.

Turning to `Cc1ccc(N2CCN(Cc3ccc([C@H]4C[C@@H](Nc5cnn(C)c(=O)c5Br)CN(C)C4)cc3)CC2)cc1C1CCC(=O)NC1=O` (stereo partly shown) [Compound 165], the DC50 is below 1 nM.

On to `Cc1cc(N2CCC3(CCN(Cc4ccc([C@H]5C[C@@H](Nc6cnn(C)c(=O)c6Br)CN(C)C5)cc4)CC3)CC2)ccc1C1CCC(=O)NC1=O` (stereo partly shown) [Compound 166], for which the DC50 was below 1 nM.

`CN1C[C@H](Nc2cnn(C)c(=O)c2Br)C[C@H](c2ccc(C(=O)N3CCC4(CC3)CCN(c3ccc(F)c(C5CCC(=O)NC5=O)c3)CC4)cc2)C1` (stereo partly shown) [Compound 169]: the 50% degradation concentration (DC50) is below 1 nM.

On to `CN1C[C@H](Nc2cnn(C)c(=O)c2Cl)C[C@H](c2ccc(CN3CCC4(CC3)CCN(c3cccc(C5CCC(=O)NC5=O)c3)CC4)cc2)C1` (stereo partly shown) [Compound 170], for which the 50% degradation concentration (DC50) is below 1 nM.

In the case of `C#Cc1c(N[C@@H]2C[C@H](c3ccc(CN4CCC(c5ccc6c(c5)CN(C5CCC(=O)NC5=O)C6=O)CC4)cc3)CN(C)C2)cnn(C)c1=O` (stereo partly shown) [Compound 171], the half-maximal degradation concentration (DC50) was above 30 nM.

Turning to `CN1C[C@H](Nc2cnn(C)c(=O)c2Br)C[C@H](c2ccc(C(=O)N3CCC(c4ccc5c(c4)CN(C4CCC(=O)NC4=O)C5=O)CC3)cc2)C1` (stereo partly shown) [Compound 172], the DC50 lay within 1 to 30 nM.
